Laboratory results taken from patent US20110251379A1, “COMPOUNDS USEFUL FOR TREATING NEURODEGENERATIVE DISORDERS” (Satori Pharmaceuticals, Inc., priority 2010, published 2011).
Read-outs that look alike come from different tables or passages of the source.

Legend:
Type in all cases: cell-based
Aβ-40 = assay: MSD Human (6E10) Ab 3-PLEX elisa, conditioned media of 2B7 cells: Aβ-40; details: for IC50: Aβ-40 (superscript b); for inhibition at 20 µM: Aβ-40, 20 μM
Protocol: (§1) Assays were conducted to determine the ability of a Compound of Formula I to modulate […], and Aβ-38.
(§2) Plates with capture antibodies were blocked for 1-2 hours at room temperature with 150 μL of the manufactures blocking reagent.
(§3) Conditioned Media: • Cultured 2B7 cells in 96 well plate with 250 uL of media per well until confluent; • Prepared serial dilutions of compounds in DMSO at 100× the final desired concentration; • Washed wells with 2B7 cells 1× with 250 uL of media; • Diluted DMSO stocks 1:100 into media: • Added 250 μL of media containing compounds (1% DMSO) to wells with 2B7 cells for 5 hours at 37° C.
(§4) Elisa Sample Prep: • Diluted conditioned media: 1 part media with 1% DMSO and 1 part blocking buffer; • 150 μL of the 250 μL of conditioned media were used.
(§5) […] CURVE SAMPLE PREP: Prepared per manufacturer's protocol (see above) • Seven point standard curve samples were prepared that contained Aβ-42, Aβ-40, and Aβ-38. The highest concentration of Aβ-42 and Aβ-3-38 was 3,000 pg/mL and the highest concentration of Aβ-40 was 10,000 pg/mL. Subsequent serial dilutions were 1:3 and the final composition of each sample was 1 part blocking buffer and 1 part cell medium containing 1% DMSO.
(§6) Overnight Sample Incubation: • Blocked plates are washed 5× with MSD wash buffer with a plate washer • 25 uL of detection antibody and blocker G reagent in MSD blocking solution is added • 25 uL of samples (1 part conditioned media containing 1% DMSO and 1 part MSD blocking buffer) are then added. • plates are incubated overnight at 4 degrees C. or 2 hours at room temp
(§7) Final Wash and Readout: • Wash wells 5× with MSD wash buffer • Added 150 μL 2×MSD read buffer • Read with MSD imager.
(§8) A-Beta peptide levels for each peptide are calculated from the standard curve using the MSD software provided with the MSD 2400 Imager. Percent vehicle values for each compound dosage were then calculated and fit to a 4 parameter curve generating IC50 values.

Aβ-38 = assay: MSD Human (6E10) Ab 3-PLEX elisa, conditioned media of 2B7 cells: Aβ-38; details: Homo sapiens; for IC50: Aβ-38 (superscript a); for inhibition at 20 µM: Aβ-38, 20 μM
Protocol: as §1, §2, §3, §4, §5, §6, §7, §8

Aβ-42 = assay: MSD Human (6E10) Ab 3-PLEX elisa, conditioned media of 2B7 cells: Aβ-42; details: Homo sapiens; for IC50: Aβ-42 (superscript c); for inhibition at 20 µM: Aβ-42, 20 μM
Protocol: as §1, §2, §3, §4, §5, §6, §7, §8

[1] = Homo sapiens, read-out: 50% reduction value
[2] = Homo sapiens, read-out: IC50 range

| Structure (SMILES) | IC50 (Aβ-40; [1]) [nM] | IC50 (Aβ-38; read-out: 50% reduction value) [nM] | IC50 (Aβ-42; read-out: 50% reduction value) [nM] | inhibition at 20 µM (Aβ-40; Homo sapiens) [%] | inhibition at 20 µM (Aβ-38) [%] | inhibition at 20 µM (Aβ-42) [%] | IC50 (Aβ-42; read-out: IC50 range) [nM] | IC50 (Aβ-38; read-out: IC50 range) [nM] | IC50 (Aβ-40; [2]) [nM] | IC50 (Aβ-40; read-out: IC50 range) [nM] |
| --- | --- | --- | --- | --- | --- | --- | --- | --- | --- | --- |
| CC(=O)OC(C)(C)C1C[C@@H](C)[C@H]2C(O1)[C@H](O)[C@@]1(C)C3CC[C@H]4C(C)(C)[C@@H](O)CC[C@@]45C[C@@]35CC[C@]21C (stereo partly drawn) | > 10000 | 1000 to 10000 | > 10000 | – | – | – | – | – | – | – |
| CC(=O)OCC1C[C@@H](C)[C@H]2C(O1)[C@H](O)[C@@]1(C)C3CC[C@H]4C(C)(C)[C@@H](O[C@H]5CN(C6COC6)CCO5)CC[C@@]45C[C@@]35CC[C@]21C (stereo partly drawn) | – | – | – | < 25 | 25 to 75 | < 25 | – | – | – | – |
| CC(=O)O[C@@H]([C@H]1C[C@@H](C)C2C(O1)[C@H](O)[C@@]1(C)[C@@H]3CC[C@H]4C(C)(C)[C@@H](OC5CN(CC(N)=O)CCO5)CC[C@@]45C[C@@]35CC[C@]21C)C(C)(C)O (stereo partly drawn) [drawing 1198] | – | < 1000 | < 1000 | 25 to 75 | – | – | 1000 to 10000 | – | – | – |
| CC(=O)O[C@@H]([C@H]1C[C@@H](C)C2C(O1)[C@H](O)[C@@]1(C)[C@@H]3CC[C@H]4C(C)(C)[C@@H](OC5CN(CC(=O)N(C)C)CCO5)CC[C@@]45C[C@@]35CC[C@]21C)C(C)(C)O (stereo partly drawn) [drawing 1199] | 1000 to 10000 | < 1000 | < 1000 | – | – | – | < 1000 | < 1000 | – | – |
| CO[C@@H](C1C[C@@H](C)[C@H]2C(O1)[C@H](O)[C@@]1(C)C3CC[C@H]4C(C)(C)C(OC(=O)NC5CN(C)C5)CC[C@@]45C[C@@]35CC[C@]21C)C(C)(C)O (stereo partly drawn) | 1000 to 10000 | < 1000 | < 1000 | – | – | – | < 1000 | 1000 to 10000 | 1000 to 10000 | – |
| CCO[C@@H](C1C[C@@H](C)[C@H]2C(O1)[C@H](O)[C@@]1(C)C3CC[C@H]4C(C)(C)C(O[C@H]5CN([C@@H](C)C(=O)O)CCO5)CC[C@@]45C[C@@]35CC[C@]21C)C(C)(C)O (stereo partly drawn) | > 10000 | < 1000 | < 1000 | – | – | – | < 1000 | – | – | – |
| C[C@@H]1CC(CNC(=O)N(C)C)OC2[C@H]1[C@@]1(C)CC[C@@]34C[C@@]35CC[C@H](O)C(C)(C)[C@@H]5CCC4[C@]1(C)[C@H]2O (stereo partly drawn) | – | > 10000 | – | 25 to 75 | – | < 25 | – | – | – | – |
| CCO[C@@H](C1C[C@@H](C)[C@H]2C(O1)[C@H](O)[C@@]1(C)C3CC[C@H]4C(C)(C)C(OC(=O)NC5CCNC5=O)CC[C@@]45C[C@@]35CC[C@]21C)C(C)(C)O (stereo partly drawn) [drawing 1289] | 1000 to 10000 | < 1000 | < 1000 | – | – | – | < 1000 | – | – | 1000 to 10000 |
| CC(=O)O[C@@H]([C@H]1C[C@@H](C)C2C(O1)[C@H](O)[C@@]1(C)[C@@H]3CC[C@H]4C(C)(C)[C@@H](O[C@@H]5OC[C@@H](O)[C@H](O)[C@H]5O)CC[C@@]45C[C@@]35CC[C@]21C)C(C)(C)O (stereo partly drawn) [drawing 1160] | – | – | < 1000 | – | – | – | < 1000 | < 1000 | 1000 to 10000 | – |
| C[C@@H]1CC(C(=O)O)OC2[C@H]1[C@@]1(C)CC[C@@]34C[C@@]35CC[C@H](OC3CN(C(=O)CC6CC6)CCO3)C(C)(C)[C@@H]5CCC4[C@]1(C)[C@H]2O (stereo partly drawn) | – | – | – | – | – | – | 1000 to 10000 | > 10000 | > 10000 | – |
| CCO[C@@H](C1C[C@@H](C)[C@H]2C(O1)[C@H](O)[C@@]1(C)C3CC[C@H]4C(C)(C)C(OC(=O)N5CC[C@@H](C(=O)O)C5)CC[C@@]45C[C@@]35CC[C@]21C)C(C)(C)O (stereo partly drawn) | > 10000 | 1000 to 10000 | < 1000 | – | – | – | < 1000 | – | – | – |
| CCOCC1C[C@@H](C)[C@H]2C(O1)[C@H](O)[C@@]1(C)C3CC[C@H]4C(C)(C)C(O[C@H]5CN(C6COC6)CCO5)CC[C@@]45C[C@@]35CC[C@]21C (stereo partly drawn) | – | – | – | < 75 | 25 to 75 | < 25 | – | 1000 to 10000 | – | – |
| CO[C@@H]([C@H]1C[C@@H](C)[C@H]2[C@H](O1)[C@H](OC)[C@@]1(C)C3CC[C@H]4C(C)(C)[C@@H](O[C@H]5CN(C6COC6)CCO5)CC[C@@]45C[C@@]35CC[C@]21C)C(C)(C)O (stereo partly drawn) | – | < 1000 | – | 25 to 75 | – | 25 to 75 | – | – | – | – |
| COC(=O)N(C)CC1C[C@@H](C)[C@H]2C(O1)[C@H](O)[C@@]1(C)C3CC[C@H]4C(C)(C)[C@@H](O)CC[C@@]45C[C@@]35CC[C@]21C (stereo partly drawn) | > 10000 | 1000 to 10000 | – | – | – | 25 to 75 | – | – | – | – |
| CC(=O)O[C@@H](C1C[C@@H](C)C2C(O1)[C@H](O)[C@@]1(C)[C@@H]3CC[C@H]4C(C)(C)C(O)CC[C@@]45C[C@@]35CC[C@]21C)C(C)(C)C (stereo partly drawn) | – | 1000 to 10000 | < 1000 | 25 to 75 | – | – | – | – | – | – |
